Literature values, collected in patent US20190307762A1, “METHODS AND COMPOSITIONS FOR THE TREATMENT OF TRAUMA AND STRESSOR-RELATED DISORDERS” (priority 2016, published 2019).

How the values were obtained:
[1] = for Equivalent amount: dose equivalent to 20 mg hydrocortisone; for Hydrocortisone equivalent (1 mg of the glucocorticoid corresponds to the listed amount in mg of hydrocortisone): per 1 mg of the glucocorticoid
cholinergic receptors = conditions: in vitro
[2] = test system: serotonin (5-HT) or noradrenaline reuptake
cytochrome P-450 3A4 = cytochrome P-450 3A4 (Homo sapiens, UniProt P08684)
[3] = in vivo
neurological tissue = conditions: preclinical; linked to binding to sigma one receptors
[4] = test system: histamine (H1.H2), serotonin (5-HT2), dopamine (D2.D1), adrenergic (al) receptors; conditions: in vitro; decreasing order H1.H2, 5-HT2, D2.D1, al
sigma 2 receptors = sigma 2 receptors (Homo sapiens, UniProt Q5BJF2)
[5] = test system: generalized anxiety disorders; conditions: versus placebo and alprazolam

Sequence of cytochrome P-450 3A4 (P08684 whole entry): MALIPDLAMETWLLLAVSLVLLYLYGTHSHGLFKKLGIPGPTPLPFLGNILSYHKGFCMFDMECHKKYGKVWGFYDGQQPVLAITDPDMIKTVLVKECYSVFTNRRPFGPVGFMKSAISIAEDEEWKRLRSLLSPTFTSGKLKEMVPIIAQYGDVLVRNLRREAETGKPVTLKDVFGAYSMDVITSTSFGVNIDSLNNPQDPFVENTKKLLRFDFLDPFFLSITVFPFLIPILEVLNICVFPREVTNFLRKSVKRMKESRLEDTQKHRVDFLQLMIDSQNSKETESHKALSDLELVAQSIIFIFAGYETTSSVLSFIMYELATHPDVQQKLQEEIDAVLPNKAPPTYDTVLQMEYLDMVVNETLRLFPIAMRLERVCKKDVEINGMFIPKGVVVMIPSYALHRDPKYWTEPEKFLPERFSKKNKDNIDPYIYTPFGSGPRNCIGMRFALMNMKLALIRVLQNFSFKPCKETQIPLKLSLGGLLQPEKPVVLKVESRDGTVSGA
Sequence of sigma 2 receptors (Q5BJF2 whole entry): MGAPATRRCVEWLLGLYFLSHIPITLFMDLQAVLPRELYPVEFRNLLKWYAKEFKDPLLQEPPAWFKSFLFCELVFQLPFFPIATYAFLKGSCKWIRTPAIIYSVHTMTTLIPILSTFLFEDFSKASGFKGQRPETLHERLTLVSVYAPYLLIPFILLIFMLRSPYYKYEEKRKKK

SMILES | Equivalent amount [1] [mg] | Hydrocortisone equivalent (1 mg of the glucocorticoid corresponds to the listed amount in mg of hydrocortisone) [1] [mg] | other results
C[C@H]1C[C@H]2[C@@H]3CCC4=CC(=O)C=C[C@]4(C)[C@@]3(F)[C@@H](O)C[C@]2(C)[C@@]1(O)C(=O)CO [Betarnethasone] | 0.75 | 26.66 | 
CC(=O)OCC(=O)[C@@]1(O)CC[C@H]2[C@@H]3CCC4=CC(=O)CC[C@]4(C)[C@H]3C(=O)C[C@@]21C [Cortisone acetate] | 25 | 0.8 | 
C[C@]12CCC(=O)C=C1CC[C@@H]1[C@@H]2[C@@H](O)C[C@@]2(C)[C@H]1CC[C@]2(O)C(=O)CO [Hydrocortisone] | 20 | 1 | 
C[C@@H]1C[C@H]2[C@@H]3C[C@H](F)C4=CC(=O)C=C[C@]4(C)[C@H]3[C@@H](O)C[C@]2(C)[C@@]1(O)C(=O)CO [Pararnethasone] | 2 | 10 | 
C[C@]12C=CC(=O)C=C1CC[C@@H]1[C@@H]2[C@@H](O)C[C@@]2(C)[C@H]1CC[C@]2(O)C(=O)CO [Prednisolone] | 5 | 4 | 
C[C@]12C=CC(=O)C=C1CC[C@H]1[C@@H]3C[C@@H](O)[C@](O)(C(=O)CO)[C@@]3(C)C[C@H](O)[C@@]12F [Triamcinolone] | 4 | 5 | 
OCCN1CCN(CCCN2c3ccccc3C=Cc3ccccc32)CC1 [opipramol] |  |  | receptor blockade (cholinergic receptors): very weakly; reuptake inhibiting properties [2]: without reuptake inhibiting properties; CYP substrate (cytochrome P-450 3A4): CYP3A substrate; risk of drug dependence [3]: no risk of drug dependence; sigma ligand strength (sigma): strong sigma ligand; protection against glutamate mediated toxicity (neurological tissue): ability to protect neurological tissue against the effects of glutamate mediated toxicity; receptor blockade [4]: blocks the following receptors in decreasing order; signaling at sigma 2 receptors (sigma 2 receptors): down regulate signaling at sigma 2 receptors; anxiolytic efficacy [5]: superiority over placebo and similar efficacy to alprazolam; levels of cGMP (cGMP): induces increased levels of cGMP
